Literature values as cited in EP0398588A1, “Macrolide antibiotics” (ELI LILLY AND COMPANY, priority 1989, dated 1990).

System: rats
Details: rat, in vivo, po

**Q.** For `O=C1C[C@@H]2OCC=C3CN4CC[C@]56c7ccccc7N1[C@H]5[C@H]2[C@H]3C[C@H]46` [strychnine], which MLD is on record?
**A.** 5 mg/kg
